Laboratory results as given in ChEMBL document CHEMBL3102853, “Carbonic anhydrase inhibitors. Synthesis, and molecular structure of novel series N-substituted N'-(2-arylmethylthio-4-chloro-5-methylbenzenesulfonyl)guanidines and their inhibition of human cytosolic isozymes I and II and the transmembrane tumor-associated isozymes IX and XII” (Eur J Med Chem, 2014).
Activity calls are given as the source filed them. The calls are words filed in the database; no cut-off is given here.

What was measured:
[1] = Cytotoxicity against human Hs 578T cells at 10 uM; type: functional; conditions: read-out: GI
MCF7 = assay: Cytotoxicity against human MCF7 cells at 10 uM; type: functional
T47D = assay: Cytotoxicity against human T47D cells at 10 uM; type: functional; conditions: read-out: GI
DU-145 = assay: Cytotoxicity against human DU145 cells at 10 uM; type: functional
PC-3 = assay: Cytotoxicity against human PC3 cells at 10 uM; type: functional
A498 = assay: Cytotoxicity against human A498 cells at 10 uM; type: functional; conditions: read-out: GI
NCI/ADR-RES = assay: Cytotoxicity against human NCI-ADR-RES cells at 10 uM; type: functional
LOX IMVI = assay: Cytotoxicity against human LOXIMVI cells at 10 uM; type: functional; conditions: read-out: GI
OVCAR-3 = assay: Cytotoxicity against human OVCAR3 cells at 10 uM; type: functional
UACC-62 = assay: Cytotoxicity against human UACC62 cells at 10 uM; type: functional; conditions: read-out: GI
SK-MEL-2 = assay: Cytotoxicity against human SK-MEL-2 cells at 10 uM; type: functional
SF-268 = assay: Cytotoxicity against human SF268 cells at 10 uM; type: functional; conditions: read-out: GI
SW-620 = assay: Cytotoxicity against human SW620 cells at 10 uM; type: functional; conditions: read-out: GI
SNB-75 = assay: Cytotoxicity against human SNB75 cells at 10 uM; type: functional; conditions: read-out: GI
KM12 = assay: Cytotoxicity against human KM12 cells at 10 uM; type: functional
HT-29 = assay: Cytotoxicity against human HT-29 cells at 10 uM; type: functional
HOP-92 = assay: Cytotoxicity against human HOP92 cells at 10 uM; type: functional; conditions: read-out: GI
NCI-H460 = assay: Cytotoxicity against human NCI-H460 cells at 10 uM; type: functional; conditions: read-out: GI
A549 = assay: Cytotoxicity against human A549 cells at 10 uM; type: functional
Carbonic anhydrase 9 = Carbonic anhydrase 9 (Homo sapiens, UniProt Q16790)

Cc1cc(S(=O)(=O)NC(=N)Nc2nnc(S(N)(=O)=O)s2)c(SCc2cccc3ccccc23)cc1Cl
inhibition of growth at 10 µM [1]: 15% | growth inhibition (GI) (MCF7): inactive | inhibition of growth at 10 µM (T47D): 17% | growth inhibition (GI) (DU-145): inactive | growth inhibition (GI) (PC-3): inactive | inhibition of growth at 10 µM (A498): 48% | growth inhibition (GI) (NCI/ADR-RES): inactive | inhibition of growth at 10 µM (LOX IMVI): 2% | growth inhibition (GI) (OVCAR-3): inactive | inhibition of growth at 10 µM (UACC-62): 2% | growth inhibition (GI) (SK-MEL-2): inactive | inhibition of growth at 10 µM (SF-268): 4% | inhibition of growth at 10 µM (SW-620): 8% | inhibition of growth at 10 µM (SNB-75): 11% | growth inhibition (GI) (KM12): inactive | growth inhibition (GI) (HT-29): inactive | inhibition of growth at 10 µM (HOP-92): 3% | inhibition of growth at 10 µM (NCI-H460): 3% | growth inhibition (GI) (A549): inactive | Ki (Carbonic anhydrase 9): 9.4 nM
